From patent publication US7632783B2 (priority 2004, dated 2009) come the findings set out here.

Series [1] concerns rice blast (Pyricularia oryzae). The format is in vivo. The conditions noted are these: potted rice (variety Karakaze), spraying liquid 300 ppm after spore inoculation, observed 7 days after inoculation, levels 0 to 3.
Series [2] deals with gray mold (Botrytis cinerea). The series can be described thus: Tomato gray mold control test (preventive effects). Also: key: 0: No onset of disease; 1: Degree of disease onset less than 40% of the untreated area; 2: Degree of disease onset 40% to less than 80% of the untreated area; 3: Degree of disease onset 80% or more. The format is in vivo. The conditions noted are these: potted tomato (giant Fukuju variety), spraying liquid 300 ppm before spore inoculation, investigated 2 days after inoculation, levels 0 to 3.

Usually melting point stands for the temperature, or range, at which the solid turns liquid. In turn, `CC1(C)Cc2c(F)cccc2C(C)(c2cnc3ccccc3c2)N1` (stereo not shown) showed a melting point of 148 to 150 °C.

Turning to `CC1(C)Cc2c(Cl)cccc2C(C)(c2cnc3ccccc3c2)N1` (stereo not shown), the melting point lay within 142 to 144 °C.

In turn, `CC1(C)Cc2c(C(N)=O)cccc2C(c2cnc3ccccc3c2)=N1` returned a melting point of 236 to 240 °C.

`CC1(C)N=C(c2cnc3ccccc3c2)c2cccc(F)c2C1O` (stereo not shown) showed a melting point of 225 to 226 °C.

For `CC1(C)N=C(c2cnc3ccccc3c2)c2ccccc2C1=O`, the melting point was determined as 137 °C.

In turn, `CC1(C)NC(c2cnc3ccccc3c2)c2cccc(F)c2C1=O` (stereo not shown) had a melting point of 228 to 229 °C.

The compound `CC1(C)N=C(c2cnc3ccccc3c2)c2cc(Br)ccc2C1(F)F` had a melting point of 123 to 125 °C.

Turning to `CC1(C)Cc2c(cccc2-c2cnco2)C(c2cnc3ccccc3c2)=N1`, the melting point lay within 175 to 179 °C.

`CN1C(c2cnc3ccccc3c2)c2ccccc2CC1(C)C` (stereo not shown) yielded a melting point of 116 to 118 °C.

Compound `CC1(C)Cc2ccccc2C(c2cnc3ccccc3c2)N1` (stereo not shown) [Example 4, 3-(3,3-dimethyl-1,2,3,4-tetrahydroisoquinolin-1-yl)quinoline] displayed a melting point of 117 to 122 °C. The “degree of disease onset” value in series [1] worked out at 0.

The compound `CC1(C)Cc2c(F)cccc2C(c2cnc3ccccc3c2)N1` (stereo not shown) [Example 110, 3-(5-fluoro-3,3-dimethyl-1,2,3,4-tetrahydroisoquinoline-1-yl)quinoline] registered a melting point of 142 to 144 °C. Moreover, the “degree of disease onset” value in series [2] came to 0. The “degree of disease onset” value in series [1] amounted to 0.

Turning to `CC1(C)Cc2c(Cl)cccc2C(c2cnc3ccccc3c2)N1` (stereo not shown) [Example 112, 3-(5-chloro-3,3-dimethyl-1,2,3,4-tetrahydroisoquinoline-1-yl)quinoline], the melting point lay in the range of 129 to 131 °C. Besides, the “degree of disease onset” value in series [2] is 0. Further, in series [1], the “degree of disease onset” value is on record as 0.

Compound `CC1c2c(F)cccc2C(c2cnc3ccccc3c2)NC1(C)C` (stereo not shown) [Example 124, 3-(5-fluoro-3,3,4-trimethyl-1,2,3,4-tetrahydroisoquinoline-1-yl)quinoline] yielded a melting point of 133 to 134 °C. In addition, in series [1], the “degree of disease onset” value is listed as 0.

`CC1(C)NC(c2cnc3ccccc3c2)c2cccc(F)c2C1(C)C` (stereo not shown) [Example 125, 3-(5-fluoro-3,3,4,4-tetramethyl-1,2,3,4-tetrahydroisoquinoline-1-yl)quinoline] came in with a melting point of 179 to 181 °C. The “degree of disease onset” value in series [1] stood at 0.

`CCOC1(C)c2c(F)cccc2C(c2cnc3ccccc3c2)=NC1(C)C` (stereo not shown) [Example 184, 3-(4-ethoxy-5-fluoro-3,3,4-trimethyl-3,4-dihydroisoquinolin-1-yl)quinoline] returned a melting point of 118 to 119 °C. The “degree of disease onset” value in series [1] is on record as 0.

`CCC1(OC)c2c(F)cccc2C(c2cnc3ccccc3c2)=NC1(C)C` (stereo not shown) [Example 185, 3-(4-ethyl-5-fluoro-4-methoxy-3,3-dimethyl-3,4-dihydroisoquinolin-1-yl)quinoline] yielded a melting point of 145 to 147 °C. In addition, in series [1], the “degree of disease onset” value came to 0.

Regarding `CC1(C)c2ccccc2C(c2cnc3ccccc3c2)=[N+]([O-])C12CCCCC2` [Example 217], the “degree of disease onset” value in series [2] and in series [1] was 0 in each case.

In the case of `CC1(C)[N+]([O-])=C(c2cnc3ccccc3c2)c2ccccc2C1(F)F` [Example 218, 3-(4,4-difluoro-3,3-dimethyl-2-oxide-3,4-dihydroisoquinolin-1-yl)quinoline], the “degree of disease onset” value in series [2] and in series [1] was 0 throughout.

Regarding `CC1(C)[N+]([O-])=C(c2cnc3ccccc3c2)c2cccc(F)c2C1(F)F` [Example 219, 3-(4,4,5-trifluoro-3,3-dimethyl-2-oxide-3,4-dihydroisoquinolin-1-yl)quinoline], the “degree of disease onset” value in series [2] and in series [1] was 0 throughout.
